Results on 18 compounds are retold here after patent publication US20230041743A1, “1,8-NAPHTHYRIDIN-2-ONE COMPOUNDS FOR THE TREATMENT OF AUTOIMMUNE DISEASE” (Hoffmann-La Roche Inc., priority 2019, published 2023).

Molecules are shown by their SMILES.

This assay addresses T1, human TLR9 (Homo sapiens, UniProt Q9NR96).
T1 construct: host or cells: HEK293 (HEK-Blue hTLR9)
T1 sequence (Q9NR96 26-1032): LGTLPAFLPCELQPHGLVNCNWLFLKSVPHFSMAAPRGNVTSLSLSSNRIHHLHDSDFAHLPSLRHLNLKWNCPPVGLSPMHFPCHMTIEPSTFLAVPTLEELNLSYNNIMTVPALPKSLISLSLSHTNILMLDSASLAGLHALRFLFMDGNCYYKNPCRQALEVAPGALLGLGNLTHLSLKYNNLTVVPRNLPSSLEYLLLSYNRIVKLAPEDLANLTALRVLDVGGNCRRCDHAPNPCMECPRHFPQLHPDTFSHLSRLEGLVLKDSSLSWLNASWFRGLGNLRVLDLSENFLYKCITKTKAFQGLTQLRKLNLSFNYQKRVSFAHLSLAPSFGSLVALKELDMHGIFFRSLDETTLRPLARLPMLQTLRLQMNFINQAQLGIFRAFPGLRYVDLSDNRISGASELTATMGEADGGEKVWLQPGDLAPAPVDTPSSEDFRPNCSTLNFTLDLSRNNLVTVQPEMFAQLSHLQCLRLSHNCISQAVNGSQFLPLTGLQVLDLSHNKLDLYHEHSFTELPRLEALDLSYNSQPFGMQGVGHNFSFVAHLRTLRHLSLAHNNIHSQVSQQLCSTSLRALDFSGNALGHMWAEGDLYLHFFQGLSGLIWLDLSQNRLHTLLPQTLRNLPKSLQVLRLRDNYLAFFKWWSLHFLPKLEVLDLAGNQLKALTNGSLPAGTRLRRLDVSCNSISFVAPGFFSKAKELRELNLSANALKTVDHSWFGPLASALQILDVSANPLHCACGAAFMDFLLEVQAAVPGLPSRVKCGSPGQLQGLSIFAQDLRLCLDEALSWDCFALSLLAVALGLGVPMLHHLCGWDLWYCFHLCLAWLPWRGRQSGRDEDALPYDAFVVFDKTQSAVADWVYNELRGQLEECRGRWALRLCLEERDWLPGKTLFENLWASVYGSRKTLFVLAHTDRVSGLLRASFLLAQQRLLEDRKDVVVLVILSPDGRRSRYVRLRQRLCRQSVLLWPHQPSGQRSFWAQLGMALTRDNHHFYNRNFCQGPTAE
The experiment in a line: HEK293-Blue-hTLR-9 cells assay (SEAP reporter, ODN2006 stimulation). It is filed as cell-based. Conditions: HEK293-Blue-hTLR9 cells, ODN2006 ligand, 20 hrs incubation; read-out: HEK/hTLR9 IC50. The source says: HEK293-Blue-hTLR-9 Cells Assay:
A stable HEK293-Blue-hTLR-9 cell line was purchased from InvivoGen (Cat. #: hkb-htlr9, San Diego, Calif., USA). These cells were originally designed for studying the stimulation of human TLR9 by monitoring the activation of NF-κB. A SEAP (secreted embryonic alkaline phosphatase) reporter gene was placed under the control of the IFN-β minimal promoter fused to five NF-κB and AP-1-binding sites. The SEAP was induced by activating NF-κB and AP-1 via stimulating HEK-Blue hTLR9 cells with TLR9 ligands. Therefore the reporter expression was declined by TLR9 antagonist under the stimulation of a ligand, such as ODN2006 (Cat. #: tlrl-2006-1, Invivogen, San Diego, Calif., USA), for incubation of 20 hrs. The cell culture supernatant SEAP reporter activity was determined using QUANTI-Blue™ kit (Cat. #: rep-qb1, Invivogen, San Diego, Calif., USA) at a wavelength of 640 nm, a detection medium that turns purple or blue in the presence of alkaline phosphatase.
HEK293-Blue-hTLR9 cells were incubated at a density of 250,000˜450,000 cells/mL in a volume of 170 μL in a 96-well plate in Dulbecco's Modified Eagle's medium (DMEM) containing 4.5 g/L glucose, 50 U/mL penicillin, […], 2 mM L-glutamine, 10% (v/v) heat-inactivated fetal bovine serum with addition of 20 μL test compound in a serial dilution in the presence of final DMSO at 1% and 10 μL of 20 uM ODN2006 in above DMEM, perform incubation under 37° C. in a CO2 incubator for 20 hrs. Then 20 μL of the supernatant from each well was incubated with 180 μL Quanti-blue substrate solution at 37° C. for 2 h and the absorbance was read at 620˜655 nm using a spectrophotometer. The signaling pathway that TLR9 activation leads to downstream NF-κB activation has been widely accepted, and therefore similar reporter assay was modified for evaluating TLR9 antagonist.
As to `C[C@@H]1CN(c2cc(=O)n(C)c3ncccc23)C[C@@H]2c3ccc(N4CC(C)(N)C4)cc3CN12` [Example 1, 4-[(4R,10bS)-8-(3-amino-3-methyl-azetidin-1-yl)-4-methyl-3,4,6,10b-tetrahydro-1H-pyrazino[2,1-a]isoindol-2-yl]-1-methyl-1,8-naphthyridin-2-one], the IC50 was 0.262 µM. Next, `C[C@@H]1CN(c2cc(=O)n(C)c3ncccc23)C[C@@H]2c3ccc(N4CC5(CN(C)C5)C4)cc3CN12` [Example 2, 4-[(4R,10bS)-4-methyl-8-(6-methyl-2,6-diazaspiro[3.3]heptan-2-yl)-3,4,6,10b-tetrahydro-1H-pyrazino[2,1-a]isoindol-2-yl]-1-methyl-1,8-naphthyridin-2-one]: 0.136 µM. In the case of `C[C@@H]1CN(c2cc(=O)n(C)c3ncccc23)C[C@@H]2c3ccc(N4CC5(CNCCO5)C4)cc3CN12` [Example 3, 4-[(4R,10bS)-4-methyl-8-(5-oxa-2,8-diazaspiro[3.5]nonan-2-yl)-3,4,6,10b-tetrahydro-1H-pyrazino[2,1-a]isoindol-2-yl]-1-methyl-1,8-naphthyridin-2-one], the IC50 was 0.325 µM.

Regarding `C[C@@H]1CN(c2cc(=O)n(C)c3ncccc23)C[C@@H]2c3ccc(N4CC[C@@](C)(N)C4)cc3CN12` [Example 4, 4-[(4R,10bS)-8-[(3R)-3-amino-3-methyl-pyrrolidin-1-yl]-4-methyl-3,4,6,10b-tetrahydro-1H-pyrazino[2,1-a]isoindol-2-yl]-1-methyl-1,8-naphthyridin-2-one], the IC50 was found to be 0.127 µM.

Consider `CO[C@@H]1CN(c2ccc3c(c2)CN2[C@H](C)CN(c4cc(=O)n(C)c5ncccc45)C[C@H]32)C[C@H]1N` [Example 5, 4-[(4R,10bS)-8-[(3R,4R)-3-amino-4-methoxy-pyrrolidin-1-yl]-4-methyl-3,4,6,10b-tetrahydro-1H-pyrazino[2,1-a]isoindol-2-yl]-1-methyl-1,8-naphthyridin-2-one], for which the IC50 was found to be 0.257 µM. Regarding `C[C@@H]1CN(c2cc(=O)n(C)c3ncccc23)C[C@@H]2c3ccc(N4C[C@H]5NCCO[C@@H]5C4)cc3CN12` [Example 6, 4-[(4R,10bS)-8-[(4aR,7aR)-3,4,4a,5,7,7a-hexahydro-2H-pyrrolo[3,4-b][1,4]oxazin-6-yl]-4-methyl-3,4,6,10b-tetrahydro-1H-pyrazino[2,1-a]isoindol-2-yl]-1-methyl-1,8-naphthyridin-2-one], the IC50 worked out at 0.197 µM.

As for `C[C@@H]1CN(c2cc(=O)n(C)c3ncccc23)C[C@@H]2c3ccc(N4C[C@@H](N)[C@@H](F)C4)cc3CN12` [Example 7, 4-[(4R,10bS)-8-[(3R,4S)-3-amino-4-fluoro-pyrrolidin-1-yl]-4-methyl-3,4,6,10b-tetrahydro-1H-pyrazino[2,1-a]isoindol-2-yl]-1-methyl-1,8-naphthyridin-2-one], the IC50 came to 0.247 µM. Next, `CO[C@H]1CN(c2ccc3c(c2)CN2[C@H](C)CN(c4cc(=O)n(C)c5ncccc45)C[C@H]32)CC[C@@H]1N` [Example 8, 4-[(4R,10bS)-8-[(3S,4S)-4-amino-3-methoxy-1-piperidyl]-4-methyl-3,4,6,10b-tetrahydro-1H-pyrazino[2,1-a]isoindol-2-yl]-1-methyl-1,8-naphthyridin-2-one]: 0.226 µM; `CO[C@H]1CCN(c2ccc3c(c2)CN2[C@H](C)CN(c4cc(=O)n(C)c5ncccc45)C[C@H]32)C[C@@H]1N` [Example 9, 4-[(4R,10bS)-8-[(3S,4S)-3-amino-4-methoxy-1-piperidyl]-4-methyl-3,4,6,10b-tetrahydro-1H-pyrazino[2,1-a]isoindol-2-yl]-1-methyl-1,8-naphthyridin-2-one]: 0.266 µM. Regarding `COC[C@@H]1CNCCN1c1ccc2c(c1)CN1[C@H](C)CN(c3cc(=O)n(C)c4ncccc34)C[C@H]21` [Example 10, 4-[(4R,10bS)-8-[(2S)-2-(methoxymethyl)piperazin-1-yl]-4-methyl-3,4,6,10b-tetrahydro-1H-pyrazino[2,1-a]isoindol-2-yl]-1-methyl-1,8-naphthyridin-2-one], the IC50 is 0.248 µM. In the case of `C[C@@H]1CN(c2cc(=O)n(C)c3ncccc23)C[C@@H]2c3ccc(N4CCOC5(CNC5)C4)cc3CN12` [Example 11, 4-[(4R,10bS)-4-methyl-8-(5-oxa-2,8-diazaspiro[3.5]nonan-8-yl)-3,4,6,10b-tetrahydro-1H-pyrazino[2,1-a]isoindol-2-yl]-1-methyl-1,8-naphthyridin-2-one] it was 0.088 µM. Next, `C[C@@H]1CN(c2cc(=O)n(C)c3ncccc23)C[C@@H]2c3ccc(N4CCNCC4)cc3CN12` [Example 12, 4-[(4R,10bS)-4-methyl-8-piperazin-1-yl-3,4,6,10b-tetrahydro-1H-pyrazino[2,1-a]isoindol-2-yl]-1-methyl-1,8-naphthyridin-2-one]: 0.192 µM; `C[C@@H]1CN(c2cc(=O)n(C)c3ncccc23)C[C@@H]2c3ccc(N4CCN[C@@H](C)C4)cc3CN12` [Example 13, 4-[(4R,10bS)-4-methyl-8-[(3S)-3-methylpiperazin-1-yl]-3,4,6,10b-tetrahydro-1H-pyrazino[2,1-a]isoindol-2-yl]-1-methyl-1,8-naphthyridin-2-one]: 0.186 µM; `C[C@@H]1CN(c2ccc3c(c2)CN2[C@H](C)CN(c4cc(=O)n(C)c5ncccc45)C[C@H]32)CCN1` [Example 14, 4-[(4R,10bS)-4-methyl-8-[(3R)-3-methylpiperazin-1-yl]-3,4,6,10b-tetrahydro-1H-pyrazino[2,1-a]isoindol-2-yl]-1-methyl-1,8-naphthyridin-2-one]: 0.144 µM.

As for `C[C@@H]1CN(c2cc(=O)n(C)c3ncccc23)C[C@@H]2c3ccc(N4CCC[C@](C)(N)C4)cc3CN12` [Example 15, 4-[(4R,10bS)-8-[(3S)-3-amino-3-methyl-1-piperidyl]-4-methyl-3,4,6,10b-tetrahydro-1H-pyrazino[2,1-a]isoindol-2-yl]-1-methyl-1,8-naphthyridin-2-one], the IC50 came out at 0.084 µM. Next, `C[C@@H]1CN(c2cc(=O)n(C)c3ncccc23)C[C@@H]2c3ccc(N4CCC[C@@H](N)C4)cc3CN12` [Example 16, 4-[(4R,10bS)-8-[(3R)-3-amino-1-piperidyl]-4-methyl-3,4,6,10b-tetrahydro-1H-pyrazino[2,1-a]isoindol-2-yl]-1-methyl-1,8-naphthyridin-2-one]: 0.101 µM; `C[C@@H]1CNCCN1c1ccc2c(c1)CN1[C@H](C)CN(c3cc(=O)n(C)c4ncccc34)C[C@H]21` [Example 17, 4-[(4R,10bS)-4-methyl-8-[(2R)-2-methylpiperazin-1-yl]-3,4,6,10b-tetrahydro-1H-pyrazino[2,1-a]isoindol-2-yl]-1-methyl-1,8-naphthyridin-2-one]: 0.222 µM; `C[C@@H]1CN(c2cc(=O)n(C)c3ncccc23)C[C@@H]2c3ccc(N4CCC(C)(N)CC4)cc3CN12` [Example 18, 4-[(4R,10bS)-8-(4-amino-4-methyl-1-piperidyl)-4-methyl-3,4,6,10b-tetrahydro-1H-pyrazino[2,1-a]isoindol-2-yl]-1-methyl-1,8-naphthyridin-2-one]: 0.163 µM.
